Laboratory results as given in patent US7989496B2, “Transdermal delivery of ketoprofen polar derivatives” (Noven Pharmaceuticals, Inc., priority 2006, dated 2011).

Experiment: Human cadaver skin permeation study in modified Franz diffusion cells
Conditions: for 72 hr Cumulative Permeation: drug-in-adhesive formulation, human cadaver stratum corneum, Franz cells, 32° C.; for transdermal delivery rate compared with ketoprofen: previous work by the inventor on non-polar ketoprofen derivatives; for delivery rate (average flux through cadaver skin), FIG. 2: ketoprofen, polar and non-polar derivatives

SMILES | 72 hr Cumulative Permeation [µg/cm²] | transdermal delivery rate compared with ketoprofen | skin permeation over 72 hours (over 72 hours) | delivery rate (average flux through cadaver skin), FIG. 2 (cadaver skin in Franz cells) | delivery rate (average flux through cadaver skin), FIG. 1 (non-polar ketoprofen derivatives, approximate 84 hour time period, cadaver skin in Franz cells)
CCOC(=O)C(C)c1cccc(C(=O)c2ccccc2)c1 (stereo not shown) [Ketoprofen Ethyl Ester] | 170 | lower delivery rates than ketoprofen |  |  | 
CC(C)OC(=O)C(C)c1cccc(C(=O)c2ccccc2)c1 (stereo not shown) [Ketoprofen Isopropyl Ester] | 61.2 | lower delivery rates than ketoprofen |  |  | 
CC(C(=O)OCC(O)CO)c1cccc(C(=O)c2ccccc2)c1 (stereo not shown) [Ketoprofen Monoglycerol Ester] | 214 |  |  | faster delivery rate than each of the non-polar ester derivatives tested | 

Second part, led by results:

72 hr Cumulative Permeation [µg/cm²] | transdermal delivery rate compared with ketoprofen | skin permeation over 72 hours (over 72 hours) | SMILES | delivery rate (average flux through cadaver skin), FIG. 2 (cadaver skin in Franz cells) | delivery rate (average flux through cadaver skin), FIG. 1 (non-polar ketoprofen derivatives, approximate 84 hour time period, cadaver skin in Franz cells)
 |  | about 1110 μg/cm^2 | CC(C(=O)O)c1cccc(C(=O)c2ccccc2)c1 (stereo not shown) [Ketoprofen, 2-(3-benzoyl-phenyl)-propionic acid] | highest delivery rate | 
 | lower delivery rates than ketoprofen |  | COC(=O)C(C)c1cccc(C(=O)c2ccccc2)c1 (stereo not shown) [methyl ester of ketoprofen] |  | faster delivery rate than each of the ethyl ester and isopropyl ester
